Source: US20140024663A1, “ATB(0,+) AMINO ACID TRANSPORTER AS A DRUG TARGET FOR TREATMENT OF ESTROGEN RECEPTOR-POSITIVE BREAST CANCER” (GEORGIA HEALTH SCIENCES UNIVERSITY RESEARCH INSTITUTE, INC., priority 2012, published 2014)

Experiments:
MCF7 cells = assay: Analysis of autophagy (LC3 localization, electron microscopy, autophagosomal proteolysis, GFP-LC3); assay type: cell-based, human; conditions: MCF7, α-MT 2.5 mM, 48 h
Experimental: FIGS. 6A to 6C. Effects of SLC6A14 blockade with α-MT in breast cancer cells. In FIG. 6A, MCF10A (a non-malignant mammary epithelial cell line), MCF7 (an ER-positive breast cancer cell line), and MB231 (an ER-negative breast cancer cell line) cells were treated with or without 2.5 mM α-MT for 24, 48, or 72 h and then used for analysis of asparagine synthetase (ASNS) and CHOP mRNA levels. In FIG. 6B, MCF7, MB231 and MCF10A cells were treated with or without 2.5 mM α-MT for 48 h and then used for immunocytochemical analysis of the constitutively expressed LC-3. In FIG. 6C, MCF7 cells were treated with (“b” and “c”) or without (“a”) α-MT (2.5 mM) for 48 h and then used for electron microscopy. Arrows indicate sequestration of cytoplasm and organelles in pre-autophagosomes and autophagosome, and the asterisk indicates condensed chromatin. N, nucleus.
FIGS. 7A and 7B. Induction of autophagy in MCF7 cells by α-MT. […] The concentrations of α-MT and 3-MA, when present, were 2.5 mM and 10 mM. The treatment time was 48 h. The extent of proteolysis was determined by the radioactivity present in the protein-free supernatant. […] In FIG. 7B, MCF7 cells were transfected with an GFP-LC3 expression plasmid, and 24 h later, the cells were treated with or without α-MT (2.5 mM) in the presence or absence of 3-MA (10 mM) for 48 h. At the end of the treatment, cells were fixed, and the percent of cells with punctate localization of the ectopically expressed GFP-LC3 was quantified. “a” represents compared to control; “b” represents compared to treatment with α-MT alone; and “c” represents compared to treatment with […]; *, p<0.001.
Analysis of autophagy. Autophagy was analyzed as described previously (Periyasamy-Thandavan et al., 2010, Autophagy; 6:19-35; and Samaddar et al., 2008, Mol Cancer Ther; 7:2977-2987) by monitoring the localization pattern of constitutively expressed LC3 as well as that of ectopically expressed GFP-LC3. In the case of the constitutively expressed LC3, cells were treated without or with α-MT, and then used for immunocytochemical analysis of LC3 localization pattern. For ectopically expressed LC3, cells were transfected with a GFP-LC3 expression plasmid. Briefly, cells were plated on a coverslip to reach ˜50% confluence and transfection of these cells was done with 1 μg of the plasmid using FuGENE transfection reagent (Roche, Nutley, N.J.). […] At the end of the treatment, cells were fixed with 4% paraformaldehyde and examined by fluorescence microscopy to count the number of cells with punctate GFP-LC3. Autophagosomal proteolysis was quantified as described previously (Periyasamy-Thandavan et al., 2010, Autophagy; 6:19-35). […]

Human SLC6A14 = target: T1, Human SLC6A14 (Homo sapiens, UniProt Q9UN76); assay: SLC6A14 transport function in X. laevis oocytes (two-microelectrode voltage-clamp); assay type: cell-based; conditions: 1 mM α-MT; currents induced by 100 M (so in the source) leucine, glutamine or arginine
T1 construct: expressed in transfected cells; host or cells: Xenopus laevis oocytes, microinjected with human SLC6A14 cRNA
T1 sequence (Q9UN76 1-642): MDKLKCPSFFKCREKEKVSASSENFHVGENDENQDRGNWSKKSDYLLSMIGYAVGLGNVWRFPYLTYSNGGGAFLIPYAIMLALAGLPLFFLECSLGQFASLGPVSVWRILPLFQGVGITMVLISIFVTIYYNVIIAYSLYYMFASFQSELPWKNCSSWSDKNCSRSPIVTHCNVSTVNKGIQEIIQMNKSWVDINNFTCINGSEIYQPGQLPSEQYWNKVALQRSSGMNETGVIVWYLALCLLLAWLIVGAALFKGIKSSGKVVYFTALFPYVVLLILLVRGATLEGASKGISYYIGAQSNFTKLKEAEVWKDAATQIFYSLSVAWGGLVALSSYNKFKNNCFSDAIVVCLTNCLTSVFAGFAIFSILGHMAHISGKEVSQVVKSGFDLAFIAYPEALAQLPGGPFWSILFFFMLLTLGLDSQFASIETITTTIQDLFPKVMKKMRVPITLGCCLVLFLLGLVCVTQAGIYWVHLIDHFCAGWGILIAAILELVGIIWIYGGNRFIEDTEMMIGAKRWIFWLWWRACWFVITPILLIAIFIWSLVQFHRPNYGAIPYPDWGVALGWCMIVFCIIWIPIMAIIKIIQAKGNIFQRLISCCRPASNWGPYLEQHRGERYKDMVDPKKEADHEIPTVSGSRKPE
Description: FIGS. 3A and 3B. Natactivation kinetics of SLC6A14-mediated transport of leucine (FIG. 3A) and arginine and glutamine (FIG. 3B). Human SLC6A14 was expressed heterologously in X. laevis oocytes by microinjection of cRNA. Four days following injection, oocytes were used for electrophysiological studies using the two-microelectrode voltage-clamp method. […] Since the expression levels varied from oocyte to oocyte resulting in varying magnitudes of amino acid-induced currents, the currents were normalized by taking the magnitude of the currents induced at 100 mM Na^+ as 1 in each oocyte and calculating the magnitude of the currents induced at other concentrations of Na^+ as a fraction of this maximal current. The experiments were done with three different oocytes and the results are given as means±SE. Insets, Hill plots.
FIG. 4. Cl^−-activation kinetics of SLC6A14-mediated transport of leucine, arginine, and glutamine. […] The experiments were done with three different oocytes and the results are given as means±SE.
FIGS. 5A to 5C. Blockade of SLC6A14-mediated transport of leucine (FIG. 5A), glutamine (FIG. 5B), and arginine (FIG. 5C) by α-MT. Oocytes injected with human SLC6A14 cRNA were perifused with 100 µM leucine, 100 μM glutamine, or 100 μM arginine under varying experimental conditions as indicated.
Analysis of SLC6A14 transport function in X. laevis oocytes. SLC6A14-mediated transport of leucine, glutamine, and arginine and its blockade by α-MT were studied using the X. laevis oocyte heterologous expression system as described previously (Hatanaka et al., 2001, J Clin Invest; 107:1035-1043; and Karunakaran et al., 2008, Biochem J; 414:343-355). Human cloned SLC6A14 cDNA was used in these studies.

With CC(N)(Cc1c[nH]c2ccccc12)C(=O)O (racemic) [α-MT, α-methyl-DL-tryptophan] the “autophagosomal proteolysis of 14C-labeled proteins” value (MCF7 cells) was “increased proteolysis”, the “autophagy (punctate localization of constitutively expressed LC3, autophagosomes in electron microscopy)” value (MCF7 cells) was “induced autophagy” and the “blockade of amino acid-induced inward currents” value (Human SLC6A14) was “blocked”.
